Experimental findings from patent EP0509752A2, “Ophthalmic compositions comprising combinations of a carbonic anhydrase inhibitor and a beta-adrenergic antagonist” (MERCK & CO. INC., priority 1991, dated 1992) are described below.

The subject of the assay is Patients with either ocular hypertension or primary open angle glaucoma. The assay can be described thus: Study of Compound I in combination with timolol: 12 hour diurnal IOP curve (Goldmann applanation tonometer). In kind it is in vivo. The note with it: 2% Compound I, 1 drop to each eye every 12 hours for seven days, ten minutes after timolol 0.5% bid, worse eye analysis, preliminary IOP data. The text has this:
Study of (S,S)-(-)-5,6-dihydro-4-ethylamino-6-methyl-4H-thieno[2,3b]thiopyran-2-sulfonamide-7,7-dioxide (I) in combination with Timolol
Patients aged 40 or over, with either ocular hypertension or primary open angle glaucoma with an intraocular pressure (IOP) in one or both eyes of 22 mmHg or more at one time point each day while receiving timolol 0.5% twice a day (bid) alone were admitted to the study. Patients had been on timolol 0.5% bid, either alone or in combination for at least three weeks prior to study entry and had been on timolol 0.5% bid as their sole glaucoma therapy for at least two weeks prior to study admission.
Secondary glaucoma was an exclusion as was a history of glaucoma surgery or laser trabeculoplasty/gonioplasty. Patients for whom timolol was contraindicated by the datasheet were excluded and also excluded were those on a concurrent β-blocker, carbonic anhydrase inhibitor, or clonidine. […]
• 1. […] Patients were admitted for a 12 hour diurnal curve (i.e., IOP recorded at 08.00, 09.00, 10.00, 12.00, 14.00, 16.00, 18.00, 20.00 hours approximately, the 08.00 recording was immediately prior to instillation of the drops). All pressures were measured by the same observer using the same Goldmann applanation tonometer. • 3. […] On Day 2, the IOP of each patient was measured at 8 am and 9 am, and a 12 hour diurnal curve was recorded on Day 8. preliminary IOP data follow : […]

As for `CCN[C@H]1C[C@H](C)S(=O)(=O)c2sc(S(N)(=O)=O)cc21` [Compound I, (S,S)-(-)-5,6-dihydro-4-ethylamino-6-methyl-4H-thieno[2,3b]thiopyran-2-sulfonamide-7,7-dioxide], the “effect over the effect of timolol alone (percent change in IOP on Day 8 from prestudy)” value is 13%-21%.
